Experimental data published in US6686358B2, “Bicyclic amino-pyrazinone compounds” (Les Laboratoires Servier, priority 2000, dated 2004).
Where a name gives a salt, the structure may show the parent alone.

Columns and labels:
Type in all cases: biochemical
[1] = target: T1, human thrombin (Homo sapiens, UniProt P00734); assay: Inhibition of thrombin (fibrin formation from fibrinogen, 405 nm); conditions: human thrombin 0.7 nM, fibrinogen substrate, 20° C., compared with control without product; read-out: concentration inhibiting the enzymatic activity of thrombin by 50% (IC50)
T1 construct: purchased Sigma
Description: For in vitro evaluation of the inhibitory activity of the products of the invention on human thrombin (Sigma, specific activity 3230 NIH units/mg), purified human fibrinogen ([…], Stago) (Fg) was added to a given amount of thrombin (0.7 nM) that had previously been incubated with or without the inhibitor to be tested (20° C., 10 minutes).
Inhibitors, enzymes and substrates are diluted in the same buffer (0.01 mM phosphate buffer, pH 7.4, containing 0.12M sodium chloride and 0.05% bovine serum albumin) and then distributed in a polystyrene microtitre plate in a volume of 50 μl.
The fibrin formed by the thrombin or by the paranitroanilide released by the action of the serine protease is measured spectrophotometrically at 405 nm after from 15 to 30 minutes' reaction at 20° C.

[2] = system: human plasma samples (activated cephalin time); assay: Anti-coagulant activity, activated cephalin time (ACT) in human plasma; conditions: concentration that doubles the activated cephalin time, 37° C.
Description: (§1) In order to evaluate the anti-coagulant activity of the compounds of the invention, the thrombin time (TT) and the activated cephalin time (ACT) were determined in human plasma samples. An ST4 coagulometer was used. A plasma deficient in platelets is lyophilised and taken up in distilled water. The TT is obtained using the reagent Thrombine Prest and the ACT is obtained using the reagent Céphaline PTT Automate. Inhibitor or solvent (10 μl) is added to the plasma (90 μl), which is then incubated for 2 minutes at 37° C. 100 μl of Thrombine Prest (TT) or of Céphaline PTT Automate (ACT) are added and at the same time the timer is started.
(§2) Under those conditions, the TT is of the order of 18 seconds and the ACT of the order of 12 seconds. The activity of an antagonist is evaluated by its capacity to prolong the TT and the ACT relative to the control. The effect of the inhibitors is expressed by the concentration in μM that doubles the coagulation time (Ctt2).

[3] = system: human plasma samples (thrombin time); assay: Anti-coagulant activity, thrombin time (TT) in human plasma; conditions: concentration that doubles the thrombin time, 37° C.
Description: as §1, §2

SMILES	IC50 [1] [µM]	ACT Ctt2 [2] [µM]	TT Ctt2 [3] [µM]
NC(=NO)c1ccc(CNC(=O)[C@@H]2CCc3cnc(NCC(c4ccccc4)c4ccccc4)c(=O)n32)cc1 [Example 1, (6S)-N-{4-[amino(hydroxyimino)methyl]benzyl}-3-[(2,2-diphenyl-ethyl)amino]-4-oxo4,6,7,8-tetrahydropyrrolo[1,2-a]pyrazine-6-carboxamide]	0.141		
NC(=NO)c1ccc(CNC(=O)[C@@H]2CCc3cnc(NCCc4ccccn4)c(=O)n32)cc1 [Example 2, (6S)-N-{4-[amino(hydroxyimino)methyl]benzyl}-4-oxo-3-{(2-(2-pyridyl)ethyl]amino}-4,6,7,8-tetrahydropyrrolo[1,2-a]pyrazine-6-carboxamide]	0.31	20	3.6
N=C(N)NOCCNC(=O)[C@@H]1CCc2cnc(NCC(c3ccccc3)c3ccccc3)c(=O)n21 [Example 3, (6S)-N-[2-({[amino(imino)methyl]amino}oxy)ethyl]-3-[(2,2-diphenyl-ethyl)amino]-4-oxo4,6,7,8-tetrahydropyrrolo[1,2-a]pyrazine-6-carboxamide dihydrochloride]	0.004		
O=C(NCc1ccccc1OCc1ccccn1)[C@@H]1CCc2cnc(NCCc3ccccn3)c(=O)n21 [Example 10, (6S)-4-oxo-3-{[2-(2-pyridyl)ethyl]amino}-N-[2-(2-pyridylmethoxy)-benzyl]-4,6,7,8-tetrahydropyrrolo[1,2-a]pyrazine-6-carboxamide]	0.136		
O=C(NCc1ccccc1OCC1=NCCN1)[C@@H]1CCc2cnc(NCCc3ccccn3)c(=O)n21 [Example 15, (6S)-N-[2-(4,5-dihydro-1H-imidazol-2-ylmethoxy)benzyl]4-oxo-3-{[2-(2-pyridyl)ethyl]amino}-4,6,7,8-tetrahydropyrrolo[1,2-a]-pyrazine-6-carboxamide]	0.012	1.91	0.19

Continued, in another order:

IC50 [1] [µM]	SMILES	ACT Ctt2 [2] [µM]	TT Ctt2 [3] [µM]
0.14	Nc1noc2cc(CNC(=O)[C@@H]3CCc4cnc(NCCc5ccccn5)c(=O)n43)ccc12 [Example 17]		
0.022	O=C(NCc1ccc2cc[nH]c2c1)[C@@H]1CCc2cnc(NCCc3ccccn3)c(=O)n21 [Example 18, (6S)-N-[1H-indol-6-ylmethyl)-4-oxo-3-{[2-(2-pyridyl)ethyl]amino}-4,6,7,8-tetrahydropyrrolo[1,2-a]pyrazine-6-carboxamide]	3.07	0.28
